Patent publication US20030129193A1 (priority 2001, published 2003)

Columns and labels:
[1] = tested on: L540rec human Hodgkin's lymphoma tumors; test: Treatment studies, L540 Hodgkin's tumor necrosis; format: in vivo, SCID mice
Method: For in vivo studies, a metastasizing mouse model for human Hodgkin's lymphoma was used. 1×10^7 L540rec cells were injected subcutaneously into the right flank of SCID mice resulting in a subcutaneous tumor with lymph node metastases in the regional lymph node stations. Subcutanous tumors were measured with a caliper in three perpendicular directions a, b, and c, and volumes calculated according to the formula V=π/6×a×b×c.
Treatment was initiated when subcutaneous tumors reached a size of 150 to 300 μl. Reagents were administered into the lateral tail vein.
Mice were closely observed after treatment for clinical signs of toxicity and clinical status was documented at defined time points (5 minutes, 10 minutes, 15 minutes, 30 minutes, 1 hour, 2 hours, 24 hours, 48 hours, 72 hours). Blood samples were taken from the tail vein at 1 hour, 2 hours and 24 hours to measure TNFα blood levels. […]
Tissue samples harvested at the time of autopsy were fixed in 3% NBF (normal buffered formalin) and embedded in paraffin wax. […] Tissue sections were analyzed on a light microscope by two independent investigators and histological findings were documented. Tumor sections with necrotic areas were scanned with a GS-700 imaging densitometer (Biorad, Hercules, Calif.) and areas of necrosis were calculated as % of total section area. […]

TNFα = TNFα serum levels in treated animals; format: in vivo, mice; details: tTF containing no endotoxin (n=6), any time point
Method: Mice were closely observed after treatment for clinical signs of toxicity and clinical status was documented at defined time points (5 minutes, 10 minutes, 15 minutes, 30 minutes, 1 hour, 2 hours, 24 hours, 48 hours, 72 hours). Blood samples were taken from the tail vein at 1 hour, 2 hours and 24 hours to measure TNFα blood levels. Three days after treatment, the mice were anesthetized, blood samples were taken from the vena cava for coagulation tests, and an autopsy was performed to document any changes in gross pathology. Tumors, lymph node metastases and the major normal organs (heart, lung, brain, liver, kidney, colon, spleen, pancreas) were harvested and prepared for histological analysis.
TNFα levels in serum were determined using the Quantikine-M kit (R&D Systems, Minneapolis, Minn.) according to the manufacturer's instructions.

[2] = tested on: thrombin-antithrombin-complexes (TAT); test: Assessment of coagulation parameters: TAT; format: in vivo, mice; details: plasma, three days after i.v. treatment, tTF alone
Method: At the time of autopsy, citrated blood was sampled from the vena cava and thrombocyte-free plasma was prepared by centrifugation. The plasma was stored at −80° C. until further analysis. Thrombin-Antithrombin-complexes were detected with the Enzygnost® TAT micro-assay (Dade-Behring, Marburg, Germany) according to the manufacturer's instructions. ATIII levels were determined using the Coamatic® antithrombin-assay (Haemochrom, Essen, Germany) following the manufacturer's instructions. Changes in the blood levels of thrombin and plasmin were detected by mixing citrated plasma with the respective chromogenic substrates S2238 and S2403 (Haemochrom, Essen, Germany) and measuring the increase of the absorption at 405 nm by an ELISA reader.

[3] = tested on: 2F2B mouse endothelial cells; test: Binding of tTF to endothelial cells (FACS, cell bound coagulation assay); format: cell-based
Method: Cells were washed and coagulation factor mix (as described above) was added. S2765 substrate was added and Factor Xa generation was measured as described above.
Fluorescent cells were detected on a flow cytometer (Becton Dickinson, San Jose, Calif.).

F9 sarcoma = test: Sarcoma mouse model, tumor necrosis; format: in vivo, balb/c nude mice; details: endotoxin-free tTF, 4 μg
Method: 1×10^7 F9 sarcoma cells were injected subcutaneously into the right flank of balb/c nude mice. Subcutanous tumors were measured with a caliper in three perpendicular directions a, b, and c, and volumes calculated according to the formula V=π/6×a×b×c. Treatment was initiated when subcutaneous tumors reached a size of 150 to 300 μl.
Reagents were administered into the lateral tail vein.
Mice were closely observed after treatment for clinical signs of toxicity and clinical status was documented at defined time points. Three days after treatment, mice were sacrificed and tumors were harvested. Paraffin embedded tissues were stained with hematoxilin and eosin (H&E). Tissue sections were analyzed on a light microscope by two independent investigators and histological findings were documented. Tumor sections with necrotic areas were scanned with a GS-700 imaging densitometer (Biorad, Hercules, Calif.) and areas of necrosis were calculated as % of total section area.

[4] = tested on: L540 human Hodgkin's tumors; test: Anti-VCAM-1•tTF coaguligand, L540; format: in vivo, SCID mice
Method: Mice bearing subcutaneous L540 tumors were injected intravenously with anti-VCAM-1 antibody and, two hours later, the mice were exsanguinated. The tumor and normal organs were removed and frozen sections were prepared and examined immunohistochemically to determine the location of the antibody. […] No localization of anti-VCAM-1 antibody was found in testis or any normal organ except heart and lung.
Before coaguligand injection, tumors were viable, having a uniform morphology lacking regions of necrosis. […] Within four hours of coaguligand injection, 40-70% of blood vessels were thrombosed, despite the initial staining of only 20-30% of tumor blood vessels. The thrombosed vessels contained occlusive platelet aggregates, packed erythrocytes and fibrin. In several regions, the blood vessels had ruptured, spilling erythrocytes into the tumor interstitium.
The drug was administered i.v. 3 times at intervals of 4 days.

[5] = tested on: citrated mouse or human plasma; test: In vitro coagulation assay on A20 cells; format: cell-based
[6] = tested on: C1300 Muγ mouse neuroblastoma; test: In vivo tumor thrombosis and anti-tumor effects, C1300 (Muγ); design: species or system BALB/c nu/nu mice
factor X = details: appropriate phospholipid membrane environment; cited from earlier work

tTF: extracellular domain of the mature Tissue Factor protein (amino acid 1-219)
tumor tissue necrosis ([1]; 4 μg or 16 μg endotoxin-free tTF alone): 0%
% tumor necrosis ([1]; Table 2, tTF alone): 4%
TNFα serum level (TNFα): could not be detected
TAT [2]: 25.4 ng/mL
binding to endothelial cells expressing tissue factor [3]: no binding of tTF to endothelial cells
average tumor tissue necrosis (F9 sarcoma): 45%
effect on tumor growth ([4]; 0.3-0.4 cm^3 tumors, i.v. 3 times at intervals of 4 days): did not affect tumor growth
control reagents that caused thrombosis of tumor vessels ([4]; equivalent quantities): None
plasma coagulation time ([5]; 10^−10 M tTF219, absence of Factor VIIa): 60 s
plasma coagulation time ([5]; 10^−10 M tTF219, presence of 13.5 nM Factor VIIa): 20 s
coagulation time ([5]; 20,000 molecules per cell): 140 s
coagulation time ([5]; 300,000 molecules of tTF per cell): 40 s
concentration at which plasma coagulated in 50 seconds ([5]; localized on A20 cells via B21-2/10H10): 3 nM
increase in coagulation-inducing potency ([5]; presence of 0.1 nM Factor VIIa): 2-5 fold
time until fibrin strands visible after addition of plasma ([5]; tTF bound to A20 cells by B21-2/10H10, mouse plasma): 36 s
thrombosis of tumor vessels ([6]; 24 hours after injection): practically all vessels in all regions of the tumor were thrombosed
effect on vessels in small tumors ([6]; small (<500 mm^3) C1300 and C1300 Muγ): largely unaffected
tumor growth ([6]; tTF alone or mixed with control bispecific antibodies vs antibodies or saline alone): grew significantly more slowly
factor X-activating activity, times less than native transmembrane TF (factor X): approximately 10^5 times
